From patent publication US9718785B2, “1,3-Disubstituted cyclopentane derivatives” (MERCK PATENT GMBH, priority 2013, dated 2017) come the findings set out here.

The test addresses T1, human recombinant full-length fatty acid synthase (FASN) (Homo sapiens, UniProt P49327).
T1 construct: 40 nM human recombinant full-length fatty acid synthase (produced in-house in SF9 cells); made in house; host or cells: SF9 insect cells
Description: Biochemical activity testing of human fatty acid synthase FASN (NADPH fluorescence intensity enzyme assay). The conditions noted are these: human recombinant FASN, enzyme assay. The method, boiled down:
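Recombinant full-length human FASN from SF9 cells, preincubated with compound (10 concentrations, top 30 μM final, 1% DMSO) and NADPH ≥15 min at room temperature, pH 7.0. Acetyl-CoA and malonyl-CoA added; NADPH fluorescence (340/460 nm) read before and after 30 min. IC50 from signal difference, normalised to uninhibited reaction and GSK837149A zero control.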

A word on the IC50: it is the concentration needed to halve the response being measured.

T1 sequence (P49327 whole entry): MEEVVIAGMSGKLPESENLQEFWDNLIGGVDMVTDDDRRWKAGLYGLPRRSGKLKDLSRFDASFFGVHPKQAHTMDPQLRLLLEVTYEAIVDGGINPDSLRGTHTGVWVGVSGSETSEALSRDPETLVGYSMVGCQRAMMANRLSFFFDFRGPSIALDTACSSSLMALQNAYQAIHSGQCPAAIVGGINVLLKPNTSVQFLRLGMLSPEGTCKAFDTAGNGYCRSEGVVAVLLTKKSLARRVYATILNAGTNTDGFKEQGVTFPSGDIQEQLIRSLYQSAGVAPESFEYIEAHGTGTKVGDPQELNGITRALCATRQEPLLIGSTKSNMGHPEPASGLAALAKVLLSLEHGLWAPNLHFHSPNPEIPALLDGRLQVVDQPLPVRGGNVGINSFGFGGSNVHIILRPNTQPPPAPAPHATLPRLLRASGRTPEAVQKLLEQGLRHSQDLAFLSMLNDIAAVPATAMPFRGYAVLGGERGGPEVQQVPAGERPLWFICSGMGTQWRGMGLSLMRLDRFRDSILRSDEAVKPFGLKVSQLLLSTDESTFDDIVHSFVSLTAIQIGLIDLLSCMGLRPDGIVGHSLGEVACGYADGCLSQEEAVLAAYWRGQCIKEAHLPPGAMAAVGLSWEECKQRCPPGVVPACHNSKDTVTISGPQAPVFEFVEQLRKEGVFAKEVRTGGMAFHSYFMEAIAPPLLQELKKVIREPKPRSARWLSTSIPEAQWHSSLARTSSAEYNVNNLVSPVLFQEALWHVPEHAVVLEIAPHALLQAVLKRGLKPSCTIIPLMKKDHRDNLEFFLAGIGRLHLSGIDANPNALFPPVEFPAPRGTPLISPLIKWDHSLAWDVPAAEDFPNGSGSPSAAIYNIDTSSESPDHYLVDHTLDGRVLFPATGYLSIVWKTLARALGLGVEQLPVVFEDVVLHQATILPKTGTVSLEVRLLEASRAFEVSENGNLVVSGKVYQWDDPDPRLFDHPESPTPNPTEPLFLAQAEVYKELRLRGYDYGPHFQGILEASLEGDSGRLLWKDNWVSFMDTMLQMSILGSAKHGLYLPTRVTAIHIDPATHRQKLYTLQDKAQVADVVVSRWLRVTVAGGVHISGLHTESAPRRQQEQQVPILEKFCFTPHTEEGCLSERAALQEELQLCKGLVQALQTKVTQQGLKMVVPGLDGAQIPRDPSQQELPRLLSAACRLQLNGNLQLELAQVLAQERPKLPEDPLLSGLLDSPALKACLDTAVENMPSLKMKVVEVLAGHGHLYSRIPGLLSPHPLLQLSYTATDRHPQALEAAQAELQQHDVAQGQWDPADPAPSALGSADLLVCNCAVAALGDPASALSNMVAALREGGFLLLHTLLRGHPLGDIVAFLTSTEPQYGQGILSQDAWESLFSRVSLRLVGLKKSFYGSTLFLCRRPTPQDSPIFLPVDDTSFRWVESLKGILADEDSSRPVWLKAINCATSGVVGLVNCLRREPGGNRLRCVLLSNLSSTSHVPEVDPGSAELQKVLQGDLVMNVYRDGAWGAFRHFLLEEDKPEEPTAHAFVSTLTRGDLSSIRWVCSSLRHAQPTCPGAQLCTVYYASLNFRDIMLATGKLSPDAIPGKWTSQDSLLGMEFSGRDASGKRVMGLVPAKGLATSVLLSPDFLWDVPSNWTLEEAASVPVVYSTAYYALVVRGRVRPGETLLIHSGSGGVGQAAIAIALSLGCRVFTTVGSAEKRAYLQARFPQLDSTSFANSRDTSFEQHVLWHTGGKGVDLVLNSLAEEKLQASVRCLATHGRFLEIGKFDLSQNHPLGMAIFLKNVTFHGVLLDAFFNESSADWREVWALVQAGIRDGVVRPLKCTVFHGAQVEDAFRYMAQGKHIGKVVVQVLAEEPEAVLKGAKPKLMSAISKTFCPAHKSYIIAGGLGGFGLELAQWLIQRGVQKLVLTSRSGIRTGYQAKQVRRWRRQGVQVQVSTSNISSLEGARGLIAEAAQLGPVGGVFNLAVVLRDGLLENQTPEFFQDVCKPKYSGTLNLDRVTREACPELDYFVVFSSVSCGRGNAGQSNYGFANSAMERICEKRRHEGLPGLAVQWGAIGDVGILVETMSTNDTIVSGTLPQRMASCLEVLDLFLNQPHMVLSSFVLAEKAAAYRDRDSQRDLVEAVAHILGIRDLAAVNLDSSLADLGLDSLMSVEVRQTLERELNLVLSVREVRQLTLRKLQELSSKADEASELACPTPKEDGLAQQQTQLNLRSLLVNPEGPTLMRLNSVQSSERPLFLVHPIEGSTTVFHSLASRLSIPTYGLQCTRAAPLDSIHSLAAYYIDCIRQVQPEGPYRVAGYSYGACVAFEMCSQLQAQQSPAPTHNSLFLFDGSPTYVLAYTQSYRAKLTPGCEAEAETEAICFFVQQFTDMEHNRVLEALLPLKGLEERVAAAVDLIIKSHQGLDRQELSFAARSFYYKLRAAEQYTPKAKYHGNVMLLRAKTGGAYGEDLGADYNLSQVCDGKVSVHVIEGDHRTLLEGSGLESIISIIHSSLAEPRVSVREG

As for `CCC(=O)N[C@H]1CC[C@@H](n2nncc2-c2ccc(-c3ccc4[nH]ccc4c3F)cn2)C1` [Compound A116, N-((1S,3R)-3-{5-[5-(4-Fluoro-1H-indol-5-yl)-pyridin-2-yl]-[1,2,3]triazol-1-yl}-cyclopentyl)-propionamide], the IC50 is under 300 nM.
Under `CCC(=O)N[C@H]1CC[C@@H](n2nncc2-c2ccc(-c3ccc4[nH]ccc4c3)cn2)C1` [Compound A117, N-((1S,3R)-3-{5-[5-(1H-Indol-5-yl)-pyridin-2-yl]-[1,2,3]triazol-1-yl}-cyclopentyl)-propionamide] stands under 300 nM.
Turning to `CCC(=O)N[C@H]1CC[C@@H](n2nncc2-c2ccc(-c3ccc4[nH]ccc4n3)cn2)C1` [Compound A118, N-((1S,3R)-3-{5-[5-(1H-Pyrrolo[3,2-b]pyridin-5-yl)-pyridin-2-yl]-[1,2,3]triazol-1-yl}-cyclopentyl)-propionamide], the IC50 was under 300 nM.
With `CCC(=O)N[C@H]1CC[C@@H](n2nncc2-c2ccc(-c3ccc4[nH]ccc4c3F)c(F)c2)C1` [Compound A119, N-((1S,3R)-3-{5-[3-Fluoro-4-(4-fluoro-1H-indol-5-yl)-phenyl]-[1,2,3]triazol-1-yl}-cyclopentyl)-propionamide], the IC50 is under 300 nM.
The same measure for `CCC(=O)N[C@H]1CC[C@@H](n2nncc2-c2ccc(-c3cc4cc[nH]c4cc3F)c(F)c2)C1` [Compound A120, N-((1S,3R)-3-{5-[3-Fluoro-4-(6-fluoro-1H-indol-5-yl)-phenyl]-[1,2,3]triazol-1-yl}-cyclopentyl)-propionamide]: under 300 nM; for `CCC(=O)N[C@H]1CC[C@@H](n2nncc2-c2ccc(-c3ccc4cc[nH]c4c3)nc2)C1` [Compound A121, N-((1S,3R)-3-{5-[6-(1H-Indol-6-yl)-pyridin-3-yl]-[1,2,3]triazol-1-yl}-cyclopentyl)-propionamide]: under 300 nM.
In the case of `CCC(=O)N[C@H]1CC[C@@H](n2nncc2-c2ccc(-c3ccc4ccn(C)c4c3)nc2)C1` [Compound A122, N-((1S,3R)-3-{5-[6-(1-Methyl-1H-indol-6-yl)-pyridin-3-yl]-[1,2,3]triazol-1-yl}-cyclopentyl)-propionamide], the IC50 lay within 300 to 3000 nM.
Consider `CCC(=O)N[C@H]1CC[C@@H](n2nncc2-c2ccc(-c3cccc4[nH]ncc34)nc2)C1` [Compound A123, N-((1S,3R)-3-{5-[6-(1H-Indazol-4-yl)-pyridin-3-yl]-[1,2,3]triazol-1-yl}-cyclopentyl)-propionamide], for which the IC50 was 300 to 3000 nM.
